Reference: ChEMBL document CHEMBL1148080, “Identification of an activator of the retinoid X receptor” (J Nat Prod, 1994)
Active and inactive are the calls of the source. The calls are words filed in the database; no cut-off is given here.

Molecular target: T1, Retinoic acid receptor alpha (Homo sapiens) (UniProt P10276)
T1 sequence (whole entry): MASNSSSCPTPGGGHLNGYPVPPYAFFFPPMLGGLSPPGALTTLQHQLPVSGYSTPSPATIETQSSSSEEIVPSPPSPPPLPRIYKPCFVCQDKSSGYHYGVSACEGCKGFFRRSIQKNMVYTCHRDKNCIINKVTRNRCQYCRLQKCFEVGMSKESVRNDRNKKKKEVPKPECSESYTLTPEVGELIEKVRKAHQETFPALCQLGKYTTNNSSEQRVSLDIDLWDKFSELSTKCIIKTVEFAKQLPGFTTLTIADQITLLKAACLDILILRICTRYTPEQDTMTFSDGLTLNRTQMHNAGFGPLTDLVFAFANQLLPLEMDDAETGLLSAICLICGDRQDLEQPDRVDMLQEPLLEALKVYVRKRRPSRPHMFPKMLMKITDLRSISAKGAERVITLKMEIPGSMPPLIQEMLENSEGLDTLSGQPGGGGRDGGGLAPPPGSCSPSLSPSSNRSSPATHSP
Assay: Transactivation of RARalpha expressed in mammalian cells assessed as effect on palindromic thyroid hormone response element-driven transcriptional activation by luciferase reporter gene assay
Type: cell-based

For `CC1=C(/C=C/C(C)=C\C=C\C(C)=C\C(=O)O[C@@H]2O[C@H](CO)[C@@H](O)[C@H](O)[C@H]2O)C(C)(C)CCC1`, the Activity was “Active”.
